Measured values published in ChEMBL document CHEMBL5376000, “One-Pot Synthesis of Cereblon Proteolysis Targeting Chimeras via Photoinduced C(sp2)-C(sp3) Cross Coupling and Amide Formation for Proteolysis Targeting Chimera Library Synthesis” (J Med Chem, 2023).
Values after ≈ are worked out from the molar mass of the structure shown.

How the values were obtained:
[1] = Aqueous solubility of the compound at 125 ug/ml measured after 24 hrs at pH 4.5 by LC-UV analysis; assay type: physicochemical; details: for solubility at 24 h: aqueous medium, pH 4.5, dose 125 µg/ml; for solubility: buffer, pH 4.5, 24 h, dose 125 µg/ml
[2] = Aqueous solubility of the compound at 125 ug/ml measured after 24 hrs at pH 6.8 by LC-UV analysis; assay type: physicochemical; details: for solubility at 24 h: aqueous medium, pH 6.8, dose 125 µg/ml; for solubility: buffer, pH 6.8, 24 h, dose 125 µg/ml
[3] = Metabolic stability of the compound in human liver microsomes at 1 umol/L by HPLC-MS/MS analysis; assay type: ADME, Microsome; details: dose 1 µmol/L, read-out: Stability
[4] = Metabolic stability of the compound in rat liver microsomes at 1 umol/L by HPLC-MS/MS analysis; assay type: ADME, Microsome; details: dose 1 µmol/L, read-out: Stability
[5] = Metabolic stability of the compound in mouse liver microsomes at 1 umol/L by HPLC-MS/MS analysis; assay type: ADME, Microsome; details: dose 1 µmol/L, read-out: Stability
[6] = Stability of the compound in 1:1 acetonitrile/water at 125 ug/ml measured after 24 hrs by LC-UV analysis; assay type: physicochemical; details: buffer, at 125 µg/mL

SMILES	solubility at 24 h [1] [µg/mL]	solubility at 24 h [2] [µg/mL]	remaining at 1 µM [3] [%]	remaining at 1 µM [4] [%]	remaining at 1 µM [5] [%]	solubility [1] [µM]	solubility [2] [µM]	Stability [6]
Cc1sc2c(c1C)C(c1ccc(Cl)cc1)=N[C@@H](CC(=O)NCCNc1ccc(Cc3ccc4c(c3)CN(C3CCC(=O)NC3=O)C4=O)cc1)c1nnc(C)n1-2 (stereo partly specified)	3 (≈ 3.87 µM)	1 (≈ 1.29 µM)	86	42	55	–	–	–
Cc1sc2c(c1C)C(c1ccc(Cl)cc1)=N[C@@H](CC(=O)NCCCN1CCC(c3ccc4c(c3)CN(C3CCC(=O)NC3=O)C4=O)CC1)c1nnc(C)n1-2 (stereo partly specified)	–	–	34	< 23	27	> 185	> 175	–
Cc1sc2c(c1C)C(c1ccc(Cl)cc1)=N[C@@H](CC(=O)NCCN1CC(N3CCC(c4ccc5c(c4)CN(C4CCC(=O)NC4=O)C5=O)CC3)C1)c1nnc(C)n1-2 (stereo partly specified)	–	–	41	< 23	25	> 188	> 174	Unstable
Cc1sc2c(c1C)C(c1ccc(Cl)cc1)=N[C@@H](CC(=O)NCCCCCCNc1ccc(Cc3ccc4c(c3)CN(C3CCC(=O)NC3=O)C4=O)cc1)c1nnc(C)n1-2 (stereo partly specified)	3 (≈ 3.61 µM)	–	> 88	66	83	–	< 1	–
Cc1sc2c(c1C)C(c1ccc(Cl)cc1)=N[C@@H](CC(=O)NCCCNc1ccc(Cc3ccc4c(c3)CN(C3CCC(=O)NC3=O)C4=O)cc1)c1nnc(C)n1-2 (stereo partly specified)	14 (≈ 17.7 µM)	4 (≈ 5.07 µM)	> 88	48	70	–	–	–
Cc1sc2c(c1C)C(c1ccc(Cl)cc1)=N[C@@H](CC(=O)NCCCCCCN1CCC(c3ccc4c(c3)CN(C3CCC(=O)NC3=O)C4=O)CC1)c1nnc(C)n1-2 (stereo partly specified)	–	–	53	< 23	< 24	> 197	> 182	–
Cc1sc2c(c1C)C(c1ccc(Cl)cc1)=N[C@@H](CC(=O)NCCCCCNc1ccc(Cc3ccc4c(c3)CN(C3CCC(=O)NC3=O)C4=O)cc1)c1nnc(C)n1-2 (stereo partly specified)	6 (≈ 7.34 µM)	–	> 88	58	76	–	< 1	–
Cc1sc2c(c1C)C(c1ccc(Cl)cc1)=N[C@@H](CC(=O)N1CCC(c3ccc4c(c3)CN(C3CCC(=O)NC3=O)C4=O)CC1)c1nnc(C)n1-2 (stereo partly specified)	36 (≈ 50.7 µM)	26 (≈ 36.6 µM)	67	34	51	–	–	–
Cc1sc2c(c1C)C(c1ccc(Cl)cc1)=N[C@@H](CC(=O)NCCCCCN1CCC(c3ccc4c(c3)CN(C3CCC(=O)NC3=O)C4=O)CC1)c1nnc(C)n1-2 (stereo partly specified)	–	–	54	< 23	27	> 191	> 178	–
Cc1sc2c(c1C)C(c1ccc(Cl)cc1)=N[C@@H](CC(=O)NCCCCNc1ccc(Cc3ccc4c(c3)CN(C3CCC(=O)NC3=O)C4=O)cc1)c1nnc(C)n1-2 (stereo partly specified)	4 (≈ 4.98 µM)	–	> 88	62	77	–	< 1	–
Cc1sc2c(c1C)C(c1ccc(Cl)cc1)=N[C@@H](CC(=O)NCCN1CC3(CCC(c4ccc5c(c4)CN(C4CCC(=O)NC4=O)C5=O)CC3)C1)c1nnc(C)n1-2 (stereo partly specified)	–	101 (≈ 127 µM)	60	< 23	33	> 190	–	–
Cc1sc2c(c1C)C(c1ccc(Cl)cc1)=N[C@@H](CC(=O)NCCN1CCC(c3ccc4c(c3)CN(C3CCC(=O)NC3=O)C4=O)CC1)c1nnc(C)n1-2 (stereo partly specified)	–	–	68	40	25	> 177	> 162	–
Cc1sc2c(c1C)C(c1ccc(Cl)cc1)=N[C@@H](CC(=O)Nc1ccc(Cc3ccc4c(c3)CN(C3CCC(=O)NC3=O)C4=O)cc1)c1nnc(C)n1-2 (stereo partly specified)	–	–	37	64	25	< 1	< 1	–
Cc1sc2c(c1C)C(c1ccc(Cl)cc1)=N[C@@H](CC(=O)NCCCCN1CCC(c3ccc4c(c3)CN(C3CCC(=O)NC3=O)C4=O)CC1)c1nnc(C)n1-2 (stereo partly specified)	–	–	66	< 23	< 24	> 189	> 175	–
Cc1sc2c(c1C)C(c1ccc(Cl)cc1)=N[C@@H](CC(=O)NCCN1CCC3(CCC(c4ccc5c(c4)CN(C4CCC(=O)NC4=O)C5=O)CC3)CC1)c1nnc(C)n1-2 (stereo partly specified)	–	161 (≈ 196 µM)	56	33	44	> 190	–	–
